Molecules are shown by their SMILES.

The values that follow come from US20250136578A1 (Kolm Therapeutics Inc., priority 2023, published 2025).

In one assay the test system is VCaP cells. Briefly: VCaP growth inhibition assay (CTG). The class given is cell-based. As to conditions: Homo sapiens, 216 h, 30 pM R1881, 9 days. The method, boiled down:
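Growth was measured by CTG luminescence after a 9-day exposure of VCaP cells to compound (final 10 fM–100 nM, fivefold steps) in the presence of 30 pM final R1881, in phenol red-free DMEM/5% CSS. IC50 values were derived by nonlinear 4-parameter regression of RLU against concentration.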

The target of the next assay is AR / CBP ternary complex (Homo sapiens, UniProt P10275+Q92793). The assay can be described thus: Ternary complex formation assay (sandwich ELISA, AR capture, CBP antibody detection) in VCaP cell lysates. The class given is cell-based. To be noted: treated 1.5 hours, rabbit CBP or p300 antibody detection, average, read-out: Average Ternary Complex. The method, boiled down:
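Sandwich ELISA: plates were coated with anti-AR antibody (AR441) and given lysates of VCaP cells treated 1.5 h with bifunctional compound in charcoal-stripped serum. Co-captured CBP or p300 was probed with rabbit mAbs and HRP secondary. Chemifluorescent signal (ex 570/em 585) was read at 0, 5 and 15 min.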
A general note: ELISA stands for enzyme-linked immunosorbent assay.

AR / CBP ternary complex, sequence (P10275 whole entry): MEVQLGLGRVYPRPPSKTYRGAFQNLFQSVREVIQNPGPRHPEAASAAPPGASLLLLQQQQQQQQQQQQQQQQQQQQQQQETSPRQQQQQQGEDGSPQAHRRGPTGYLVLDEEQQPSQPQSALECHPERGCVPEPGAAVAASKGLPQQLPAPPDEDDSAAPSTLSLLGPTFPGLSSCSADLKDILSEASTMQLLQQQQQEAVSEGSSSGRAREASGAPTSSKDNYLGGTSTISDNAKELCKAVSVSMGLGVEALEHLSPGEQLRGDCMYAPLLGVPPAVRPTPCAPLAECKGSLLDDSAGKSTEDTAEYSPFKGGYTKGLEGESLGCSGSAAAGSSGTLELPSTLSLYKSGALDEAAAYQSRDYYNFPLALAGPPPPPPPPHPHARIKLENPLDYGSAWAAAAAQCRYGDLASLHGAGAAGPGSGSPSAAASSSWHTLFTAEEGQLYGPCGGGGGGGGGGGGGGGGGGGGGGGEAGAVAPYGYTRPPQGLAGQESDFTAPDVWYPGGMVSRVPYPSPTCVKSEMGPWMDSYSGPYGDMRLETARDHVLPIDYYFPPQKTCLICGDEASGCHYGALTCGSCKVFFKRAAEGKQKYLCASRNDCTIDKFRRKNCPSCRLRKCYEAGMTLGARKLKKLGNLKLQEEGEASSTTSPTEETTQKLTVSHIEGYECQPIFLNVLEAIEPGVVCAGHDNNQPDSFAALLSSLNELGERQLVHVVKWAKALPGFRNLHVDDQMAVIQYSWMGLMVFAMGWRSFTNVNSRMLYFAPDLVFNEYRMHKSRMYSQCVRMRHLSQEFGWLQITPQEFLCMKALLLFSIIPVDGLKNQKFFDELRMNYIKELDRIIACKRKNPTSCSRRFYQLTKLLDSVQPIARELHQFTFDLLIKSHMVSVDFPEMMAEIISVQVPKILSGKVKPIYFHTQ
AR / CBP ternary complex, sequence (Q92793 2-2442): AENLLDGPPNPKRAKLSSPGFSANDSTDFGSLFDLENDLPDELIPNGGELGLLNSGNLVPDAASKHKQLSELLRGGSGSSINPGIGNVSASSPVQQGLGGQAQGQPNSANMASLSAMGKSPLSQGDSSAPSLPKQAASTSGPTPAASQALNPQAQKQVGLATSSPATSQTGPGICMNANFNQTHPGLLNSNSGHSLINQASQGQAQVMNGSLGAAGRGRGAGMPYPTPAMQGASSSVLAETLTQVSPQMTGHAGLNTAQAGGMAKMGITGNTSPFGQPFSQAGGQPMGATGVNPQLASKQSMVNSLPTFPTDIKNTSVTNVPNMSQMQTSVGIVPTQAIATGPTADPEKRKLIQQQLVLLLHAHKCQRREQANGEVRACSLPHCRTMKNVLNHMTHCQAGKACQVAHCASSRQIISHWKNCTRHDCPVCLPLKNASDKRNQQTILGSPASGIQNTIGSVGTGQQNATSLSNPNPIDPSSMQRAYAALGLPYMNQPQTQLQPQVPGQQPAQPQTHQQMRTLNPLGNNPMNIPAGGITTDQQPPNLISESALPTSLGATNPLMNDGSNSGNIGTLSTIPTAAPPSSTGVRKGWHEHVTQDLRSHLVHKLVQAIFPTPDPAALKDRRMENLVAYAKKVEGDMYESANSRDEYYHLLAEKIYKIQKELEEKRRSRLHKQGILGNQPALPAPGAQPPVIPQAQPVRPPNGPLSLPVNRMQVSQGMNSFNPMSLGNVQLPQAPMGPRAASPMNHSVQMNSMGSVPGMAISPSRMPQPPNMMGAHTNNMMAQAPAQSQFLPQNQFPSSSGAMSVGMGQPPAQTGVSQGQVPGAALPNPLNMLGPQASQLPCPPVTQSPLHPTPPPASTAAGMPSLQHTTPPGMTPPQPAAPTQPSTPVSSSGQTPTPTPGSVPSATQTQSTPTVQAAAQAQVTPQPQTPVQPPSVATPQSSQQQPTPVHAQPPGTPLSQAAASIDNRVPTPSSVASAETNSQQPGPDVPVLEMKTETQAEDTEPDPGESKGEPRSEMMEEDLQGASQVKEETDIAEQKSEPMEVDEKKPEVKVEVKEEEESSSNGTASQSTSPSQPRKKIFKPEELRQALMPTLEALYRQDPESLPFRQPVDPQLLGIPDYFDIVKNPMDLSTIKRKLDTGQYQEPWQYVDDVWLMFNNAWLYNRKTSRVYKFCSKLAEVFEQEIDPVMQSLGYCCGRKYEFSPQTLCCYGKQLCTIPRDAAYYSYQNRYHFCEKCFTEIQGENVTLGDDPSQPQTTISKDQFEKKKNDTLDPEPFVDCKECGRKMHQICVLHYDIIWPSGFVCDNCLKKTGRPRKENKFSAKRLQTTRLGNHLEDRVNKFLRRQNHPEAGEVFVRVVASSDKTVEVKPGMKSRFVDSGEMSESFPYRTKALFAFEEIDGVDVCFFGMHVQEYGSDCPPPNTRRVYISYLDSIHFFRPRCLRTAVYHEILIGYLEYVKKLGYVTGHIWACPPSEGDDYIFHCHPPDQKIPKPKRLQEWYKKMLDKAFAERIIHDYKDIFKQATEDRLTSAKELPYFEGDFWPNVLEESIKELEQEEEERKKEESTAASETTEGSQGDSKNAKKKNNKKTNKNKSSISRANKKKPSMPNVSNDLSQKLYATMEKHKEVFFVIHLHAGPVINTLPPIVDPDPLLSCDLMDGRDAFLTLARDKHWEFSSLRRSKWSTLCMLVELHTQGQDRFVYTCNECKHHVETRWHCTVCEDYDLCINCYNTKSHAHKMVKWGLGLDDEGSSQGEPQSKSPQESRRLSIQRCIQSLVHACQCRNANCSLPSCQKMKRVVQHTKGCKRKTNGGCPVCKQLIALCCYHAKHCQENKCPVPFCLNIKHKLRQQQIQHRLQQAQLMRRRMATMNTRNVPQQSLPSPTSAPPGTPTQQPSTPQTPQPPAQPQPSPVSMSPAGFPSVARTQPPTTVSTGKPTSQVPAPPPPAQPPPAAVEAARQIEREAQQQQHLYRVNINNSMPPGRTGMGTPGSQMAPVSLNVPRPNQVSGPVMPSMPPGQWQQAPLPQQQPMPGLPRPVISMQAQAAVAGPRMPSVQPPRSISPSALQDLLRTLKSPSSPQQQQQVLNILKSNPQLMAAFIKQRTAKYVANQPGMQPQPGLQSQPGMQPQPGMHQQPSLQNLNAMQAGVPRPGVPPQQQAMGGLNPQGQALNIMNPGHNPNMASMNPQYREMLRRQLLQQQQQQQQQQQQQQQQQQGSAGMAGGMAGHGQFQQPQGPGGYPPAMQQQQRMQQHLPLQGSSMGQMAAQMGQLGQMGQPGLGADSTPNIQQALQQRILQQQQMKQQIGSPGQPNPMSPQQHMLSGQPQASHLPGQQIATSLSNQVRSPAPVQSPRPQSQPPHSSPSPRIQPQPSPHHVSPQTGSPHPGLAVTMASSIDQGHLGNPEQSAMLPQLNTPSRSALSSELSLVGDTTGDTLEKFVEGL

Take `CC(=O)N1CCc2c(c(-c3cccc4nc(-c5ccc(CCC6CCN(c7ccc(C(=O)N[C@H]8CC[C@H](Oc9ccc(C#N)c(Cl)c9)CC8)nn7)CC6)nc5)ncc34)nn2C2CCOCC2)C1` [Compound 73, 6-[4-[2-[5-[5-(5-acetyl-1-tetrahydropyran-4-yl-6,7-dihydro-4H-pyrazolo[4,3-c]pyridin-3-yl)quinazolin-2-yl]-2-pyridyl]ethyl]-1-piperidyl]-N-[4-(3-chloro-4-cyano-phenoxy)cyclohexyl]pyridazine-3-carboxamide]: the IC50 (usually the concentration that inhibits the measured activity by half) in the assay with VCaP cells was no more than 0.1 nM. Moreover, the EC50 at AR / CBP ternary complex is less than 1 nM.

Turning to `CC(=O)N1CCc2c(c(-c3cccc4cc(-c5ccc(CCC6CCN(c7ccc(C(=O)N[C@H]8CC[C@H](Oc9ccc(C#N)c(Cl)c9)CC8)cn7)CC6)cc5)ncc34)nn2C2CCOCC2)C1` [Compound 166, 6-[4-[2-[4-[8-(5-acetyl-1-tetrahydropyran-4-yl-6,7-dihydro-4H-pyrazolo[4,3-c]pyridin-3-yl)-3-isoquinolyl]phenyl]ethyl]-1-piperidyl]-N-[4-(3-chloro-4-cyano-phenoxy)cyclohexyl]pyridine-3-carboxamide], the IC50 in the assay with VCaP cells is 0.1 to 1 nM. The EC50 at AR / CBP ternary complex is less than 1 nM.

`CC(=O)N1CCc2c(c(-c3cccc4cc(-c5ccc(CCC6CCN(c7ccc(C(=O)N[C@H]8CC[C@H](Oc9ccc(C#N)c(Cl)c9)CC8)cn7)CC6)nc5)ncc34)nn2C2CCOCC2)C1` [Compound 165] registered an IC50 in the assay on VCaP cells of 0.1 to 1 nM. Further, the EC50 on AR / CBP ternary complex is less than 1 nM.

For the compound `CC(=O)N1CCc2c(c(N3CCCc4cc(-c5cnn(C)c5)c(C(F)F)cc43)nn2[C@H]2CC[C@H](C3CCC4(CC3)CN(c3ccc(C(=O)N[C@H]5CC[C@H](Oc6ccc(C#N)c(Cl)c6)CC5)nn3)C4)CC2)C1` [Compound 241, 6-[7-[4-[5-acetyl-3-[7-(difluoromethyl)-6-(1-methylpyrazol-4-yl)-3,4-dihydro-2H-quinolin-1-yl]-6,7-dihydro-4H-pyrazolo[4,3-c]pyridin-1-yl]cyclohexyl]-2-azaspiro[3.5]nonan-2-yl]-N-[4-(3-chloro-4-cyano-phenoxy)cyclohexyl]pyridazine-3-carboxamide], the IC50 in the assay with VCaP cells fell in the range of 0.1 to 1 nM. For the same compound, the EC50 at AR / CBP ternary complex fell in the range of 1 to 10 nM.

In turn, `CC(=O)N1CCc2c(c(N3CCCc4nc(-c5ccc(CCC6CCN(c7ccc(C(=O)N[C@H]8CC[C@H](Oc9ccc(C#N)c(Cl)c9)CC8)nn7)CC6)nc5)ncc43)nn2C2CCOCC2)C1` [Compound 72, 6-[4-[2-[5-[5-(5-acetyl-1-tetrahydropyran-4-yl-6,7-dihydro-4H-pyrazolo[4,3-c]pyridin-3-yl)-7,8-dihydro-6H-pyrido[3,2-d]pyrimidin-2-yl]-2-pyridyl]ethyl]-1-piperidyl]-N-[4-(3-chloro-4-cyano-phenoxy)cyclohexyl]pyridazine-3-carboxamide] yielded an IC50 in the assay on VCaP cells of 0.1 to 1 nM. Moreover, on AR / CBP ternary complex, the EC50 is less than 1 nM.

Turning to `CO[C@H]1CN(c2ccc(C(=O)N[C@H]3CC[C@H](Oc4ccc(C#N)c(Cl)c4)CC3)nn2)CC[C@@H]1CN1CCC(n2nc(N3CCCc4cc(-c5cnn(C)c5)c(C(F)F)cc43)c3c2CCN(C(C)=O)C3)CC1` (stereo in doubt) [Compound 220, 6-[4-[[4-[5-acetyl-3-[7-(difluoromethyl)-6-(1-methylpyrazol-4-yl)-3,4-dihydro-2H-quinolin-1-yl]-6,7-dihydro-4H-pyrazolo[4,3-c]pyridin-1-yl]-1-piperidyl]methyl]-3-methoxy-1-piperidyl]-N-[4-(3-chloro-4-cyano-phenoxy)cyclohexyl]pyridazine-3-carboxamide], in the assay on VCaP cells, the half-inhibitory concentration (IC50) was no more than 0.1 nM. Moreover, the EC50 at AR / CBP ternary complex was less than 1 nM.

Consider `CC(=O)N1CCc2c(c(N3CCCc4cc(-c5cnn(C)c5)c(C(F)F)cc43)nn2[C@H]2CC[C@H](OC3CN(c4ccc(C(=O)N[C@H]5CC[C@H](Oc6ccc(C#N)c(Cl)c6)CC5)nn4)C3)CC2)C1` [Compound 224, 6-[3-[4-[5-acetyl-3-[7-(difluoromethyl)-6-(1-methylpyrazol-4-yl)-3,4-dihydro-2H-quinolin-1-yl]-6,7-dihydro-4H-pyrazolo[4,3-c]pyridin-1-yl]cyclohexoxy]azetidin-1-yl]-N-[4-(3-chloro-4-cyanophenoxy)cyclohexyl]pyridazine-3-carboxamide], for which the IC50 with VCaP cells is no more than 0.1 nM. The EC50 at AR / CBP ternary complex was less than 1 nM.

In the assay with VCaP cells, `CC(=O)N1CCc2c(c(-c3cccc4cc(-c5ccc(N6CC(C7CCN(c8ccc(C(=O)N[C@H]9CC[C@H](Oc%10ccc(C#N)c(Cl)c%10)CC9)nn8)CC7)C6)nc5)ncc34)nn2C2CCOCC2)C1` [Compound 181] yielded an IC50 of no more than 0.1 nM. Besides, at AR / CBP ternary complex, the EC50 was less than 1 nM.

Take `CO[C@@H]1CN(c2ccc(C(=O)N[C@H]3CC[C@H](Oc4ccc(C#N)c(Cl)c4)CC3)nn2)CC[C@@H]1CN1CCC(n2nc(N3CCCc4cc(-c5cnn(C)c5)c(C(F)F)cc43)c3c2CCN(C(C)=O)C3)CC1` [Compound 219, 6-[4-[[4-[5-acetyl-3-[7-(difluoromethyl)-6-(1-methylpyrazol-4-yl)-3,4-dihydro-2H-quinolin-1-yl]-6,7-dihydro-4H-pyrazolo[4,3-c]pyridin-1-yl]-1-piperidyl]methyl]-3-methoxy-1-piperidyl]-N-[4-(3-chloro-4-cyano-phenoxy)cyclohexyl] pyridazine-3-carboxamide]: in the assay with VCaP cells, the IC50 was no more than 0.1 nM. Besides, on AR / CBP ternary complex, the EC50 is less than 1 nM.

In the assay with VCaP cells, `CC(=O)N1CCc2c(c(N3CCCc4cc(-c5cnn(C)c5)c(C(F)F)cc43)nn2C2CCN(C3CCN(c4ccc(C(=O)N[C@H]5CC[C@H](Oc6ccc(C#N)c(Cl)c6)CC5)nn4)CC3(F)F)CC2)C1` (some centres unmarked) [Compound 198, 6-[4-[4-[5-acetyl-3-[7-(difluoromethyl)-6-(1-methylpyrazol-4-yl)-3,4-dihydro-2H-quinolin-1-yl]-6,7-dihydro-4H-pyrazolo[4,3-c]pyridin-1-yl]-1-piperidyl]-3,3-difluoro-1-piperidyl]-N-[4-(3-chloro-4-cyano-phenoxy)cyclohexyl]pyridazine-3-carboxamide] came in with an IC50 of no more than 0.1 nM. At AR / CBP ternary complex, the EC50 is less than 1 nM.

`CC(=O)N1CCc2c(c(-c3cccc4cc(-c5cnn(C)c5)ncc34)nn2C2CCN(CC3CCN(c4ccc(C(=O)N[C@H]5CC[C@H](Oc6ccc(C#N)c(Cl)c6)CC5)nn4)CC3)CC2)C1` [Compound 32, 6-[4-[[4-[5-acetyl-3-[3-(1-methylpyrazol-4-yl)-8-isoquinolyl]-6,7-dihydro-4H-pyrazolo[4,3-c]pyridin-1-yl]-1-piperidyl]methyl]-1-piperidyl]-N-[4-(3-chloro-4-cyano-phenoxy)cyclohexyl]pyridazine-3-carboxamide] displayed a half-maximal inhibitory concentration (IC50) with VCaP cells of no more than 0.1 nM. At AR / CBP ternary complex, the EC50 was less than 1 nM.

In the assay on VCaP cells, `COC(=O)N1c2ccc3c(nc(Cc4ccccc4)n3[C@@H]3CCC[C@H](OCCN4CCN(c5ccc(C(=O)N[C@H]6CC[C@H](Oc7ccc(C#N)c(Cl)c7)CC6)nn5)CC4)C3)c2CC[C@@H]1C` [Compound 270, methyl (7S)-2-benzyl-3-[3-[2-[4-[6-[[4-(3-chloro-4-cyano-phenoxy)cyclohexyl]carbamoyl]pyridazin-3-yl]piperazin-1-yl]ethoxy]cyclohexyl]-7-methyl-8,9-dihydro-7H-imidazo[4,5-f]quinoline-6-carboxylate] yielded a half-inhibitory concentration (IC50) of 1 to 100 nM. In addition, the EC50 on AR / CBP ternary complex was 1 to 10 nM.

In the case of `CC(=O)N1CCc2c(c(N3CCCc4cc(-c5cnn(C)c5)c(C(F)F)cc43)nn2[C@H]2CC[C@@H](CN3CCN(c4ccc(C(=O)N[C@H]5CC[C@H](Oc6ccc(C#N)c(Cl)c6)CC5)nn4)CC3)CC2)C1` [Compound 210, 6-[4-[[4-[5-acetyl-3-[7-(difluoromethyl)-6-(1-methylpyrazol-4-yl)-3,4-dihydro-2H-quinolin-1-yl]-6,7-dihydro-4H-pyrazolo[4,3-c]pyridin-1-yl]cyclohexyl]methyl]piperazin-1-yl]-N-[4-(3-chloro-4-cyano-phenoxy)cyclohexyl]pyridazine-3-carboxamide], the IC50 in the assay with VCaP cells is no more than 0.1 nM. Further, the EC50 at AR / CBP ternary complex is less than 1 nM.

Turning to `Cc1cc2c(N3CCN(C)c4cc(-c5cnn(C)c5)c(C#N)cc43)cc(OCC3CCN(c4ccc(C(=O)N[C@H]5CC[C@H](Oc6ccc(C#N)c(Cl)c6)CC5)nn4)CC3)cc2n(C)c1=O` [Compound 37, N-[4-(3-chloro-4-cyano-phenoxy)cyclohexyl]-6-[4-[[5-[7-cyano-4-methyl-6-(1-methylpyrazol-4-yl)-2,3-dihydroquinoxalin-1-yl]-1,3-dimethyl-2-oxo-7-quinolyl]oxymethyl]-1-piperidyl]pyridazine-3-carboxamide], the half-maximal inhibitory concentration (IC50) in the assay with VCaP cells fell in the range of 0.1 to 1 nM. Further, at AR / CBP ternary complex, the EC50 was greater than 100 nM.

In the assay with VCaP cells, `CC(=O)N1CCc2c(c(N3CCCc4cc(-c5cscn5)c(C(F)F)cc43)nn2C2CCN(CC3CCN(c4ccc(C(=O)N[C@H]5CC[C@H](Oc6ccc(C#N)c(Cl)c6)CC5)nn4)CC3)CC2)C1` [Compound 253, 6-[4-[[4-[5-acetyl-3-[7-(difluoromethyl)-6-thiazol-4-yl-3,4-dihydro-2H-quinolin-1-yl]-6,7-dihydro-4H-pyrazolo[4,3-c]pyridin-1-yl]-1-piperidyl]methyl]-1-piperidyl]-N-[4-(3-chloro-4-cyano-phenoxy)cyclohexyl] pyridazine-3-carboxamide] registered an IC50 of no more than 0.1 nM. Besides, at AR / CBP ternary complex, the EC50 was less than 1 nM.

For the compound `CC(=O)N1CCc2c(c(-c3cccc4cc(-c5cnn(CCOC6CC7(C6)CN(c6ccc(C(=O)N[C@H]8CC[C@H](Oc9ccc(C#N)c(Cl)c9)CC8)nn6)C7)c5)ncc34)nn2C2CCOCC2)C1` [Compound 63, 6-[6-[2-[4-[8-(5-acetyl-1-tetrahydropyran-4-yl-6,7-dihydro-4H-pyrazolo[4,3-c]pyridin-3-yl)-3-isoquinolyl]pyrazol-1-yl]ethoxy]-2-azaspiro[3.3]heptan-2-yl]-N-[4-(3-chloro-4-cyano-phenoxy)cyclohexyl]pyridazine-3-carboxamide], the 50% inhibitory concentration (IC50) in the assay on VCaP cells lay in the range of 0.1 to 1 nM. For the same compound, the EC50 at AR / CBP ternary complex is less than 1 nM.
